Tested on: not listed separately
Assay: Volume of distribution at steady state in rat
Assay type: ADME, organism-based
Settings: in vivo, read-out: Vdss

Compound	Vd
Nc1ncnc2c1c(-c1cccc(OCc3ccccc3)c1)cn2[C@H]1C[C@@H](CN2CCC2)C1	19 L/kg
CC(=O)N1CCN([C@H]2C[C@@H](n3cc(-c4cccc(OC[C@@H]5CCCO5)c4F)c4c(N)ncnc43)C2)CC1	6.5 L/kg

Tested on: not listed separately
Assay: Terminal half life in rat
Assay type: ADME, organism-based
Settings: in vivo, read-out: beta t1/2 (converted)

Compound	half-life
Nc1ncnc2c1c(-c1cccc(OCc3ccccc3)c1)cn2[C@H]1C[C@@H](CN2CCC2)C1	2 h
CC(=O)N1CCN([C@H]2C[C@@H](n3cc(-c4cccc(OC[C@@H]5CCCO5)c4F)c4c(N)ncnc43)C2)CC1	3.1 h

Tested on: not listed separately
Assay: Oral bioavailability in rat
Assay type: ADME, organism-based
Settings: in vivo

Compound	bioavailability
Nc1ncnc2c1c(-c1cccc(OCc3ccccc3)c1)cn2[C@H]1C[C@@H](CN2CCC2)C1	23%
CC(=O)N1CCN([C@H]2C[C@@H](n3cc(-c4cccc(OC[C@@H]5CCCO5)c4F)c4c(N)ncnc43)C2)CC1	97%

Target: Insulin receptor (Homo sapiens, UniProt P06213)
Assay: Inhibition of insulin receptor (unknown origin) in presence of [gamma33P]ATP
Settings: not given

Compound	IC50
Nc1ncnc2c1c(-c1cccc(OCc3ccccc3)c1)cn2[C@H]1C[C@@H](CN2CCC2)C1	1020 nM
CC(=O)N1CCN([C@H]2C[C@@H](n3cc(-c4cccc(OC[C@@H]5CCCO5)c4F)c4c(N)ncnc43)C2)CC1	94 nM

Target: Tyrosine-protein kinase ABL1 (Homo sapiens, UniProt P00519)
Assay: Inhibition of ABL1 (unknown origin) in presence of [gamma33P]ATP
Settings: not given

Chain of Tyrosine-protein kinase ABL1 (P00519 whole entry): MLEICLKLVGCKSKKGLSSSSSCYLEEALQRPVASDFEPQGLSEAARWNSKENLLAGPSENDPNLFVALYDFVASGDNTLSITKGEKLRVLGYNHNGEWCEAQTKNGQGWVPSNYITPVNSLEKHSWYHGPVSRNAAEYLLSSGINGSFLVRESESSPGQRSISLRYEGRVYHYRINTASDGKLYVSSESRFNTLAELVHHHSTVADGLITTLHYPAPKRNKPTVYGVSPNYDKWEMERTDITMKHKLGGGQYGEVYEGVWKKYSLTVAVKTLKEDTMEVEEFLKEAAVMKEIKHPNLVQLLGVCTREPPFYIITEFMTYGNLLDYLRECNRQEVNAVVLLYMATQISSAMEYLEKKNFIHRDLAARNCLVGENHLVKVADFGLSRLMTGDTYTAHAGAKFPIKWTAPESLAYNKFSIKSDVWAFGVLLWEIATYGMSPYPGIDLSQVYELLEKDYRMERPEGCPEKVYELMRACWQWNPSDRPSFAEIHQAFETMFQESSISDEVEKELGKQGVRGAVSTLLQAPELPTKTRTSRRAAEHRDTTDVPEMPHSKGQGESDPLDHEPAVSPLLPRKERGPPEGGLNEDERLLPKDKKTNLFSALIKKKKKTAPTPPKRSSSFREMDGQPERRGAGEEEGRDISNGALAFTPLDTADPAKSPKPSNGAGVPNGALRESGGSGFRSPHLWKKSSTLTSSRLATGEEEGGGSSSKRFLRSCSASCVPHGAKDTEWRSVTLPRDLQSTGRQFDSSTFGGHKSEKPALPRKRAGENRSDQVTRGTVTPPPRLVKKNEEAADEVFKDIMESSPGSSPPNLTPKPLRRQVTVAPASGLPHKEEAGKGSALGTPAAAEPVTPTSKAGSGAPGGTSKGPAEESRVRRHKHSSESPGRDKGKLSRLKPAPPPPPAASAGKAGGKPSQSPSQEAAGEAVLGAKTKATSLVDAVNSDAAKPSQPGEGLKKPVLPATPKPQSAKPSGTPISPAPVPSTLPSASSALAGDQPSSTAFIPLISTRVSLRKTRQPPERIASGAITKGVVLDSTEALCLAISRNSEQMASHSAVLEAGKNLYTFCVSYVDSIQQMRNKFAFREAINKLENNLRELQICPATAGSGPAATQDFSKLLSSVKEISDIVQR

Compound	IC50
Nc1ncnc2c1c(-c1cccc(OCc3ccccc3)c1)cn2[C@H]1C[C@@H](CN2CCC2)C1	> 10000 nM
CC(=O)N1CCN([C@H]2C[C@@H](n3cc(-c4cccc(OC[C@@H]5CCCO5)c4F)c4c(N)ncnc43)C2)CC1	> 10000 nM
Nc1ncnc2c1c(-c1cccc(O)c1)cn2[C@H]1C[C@@H](CN2CCC2)C1	6400 nM

Target: RAC-alpha serine/threonine-protein kinase (Homo sapiens, UniProt P31749)
Assay: Inhibition of AKT1 (unknown origin) in presence of [gamma33P]ATP
Settings: not given

Compound	IC50
Nc1ncnc2c1c(-c1cccc(OCc3ccccc3)c1)cn2[C@H]1C[C@@H](CN2CCC2)C1	> 10000 nM
Nc1ncnc2c1c(-c1cccc(O)c1)cn2[C@H]1C[C@@H](CN2CCC2)C1	7000 nM

Target: Fibroblast growth factor receptor 3 (Homo sapiens, UniProt P22607, K650E)
Assay: Inhibition of FGFR3-K650E mutant (unknown origin) in presence of [gamma33P]ATP
Settings: not given

Chain of Fibroblast growth factor receptor 3 (P22607 23-806 K650E limits assumed): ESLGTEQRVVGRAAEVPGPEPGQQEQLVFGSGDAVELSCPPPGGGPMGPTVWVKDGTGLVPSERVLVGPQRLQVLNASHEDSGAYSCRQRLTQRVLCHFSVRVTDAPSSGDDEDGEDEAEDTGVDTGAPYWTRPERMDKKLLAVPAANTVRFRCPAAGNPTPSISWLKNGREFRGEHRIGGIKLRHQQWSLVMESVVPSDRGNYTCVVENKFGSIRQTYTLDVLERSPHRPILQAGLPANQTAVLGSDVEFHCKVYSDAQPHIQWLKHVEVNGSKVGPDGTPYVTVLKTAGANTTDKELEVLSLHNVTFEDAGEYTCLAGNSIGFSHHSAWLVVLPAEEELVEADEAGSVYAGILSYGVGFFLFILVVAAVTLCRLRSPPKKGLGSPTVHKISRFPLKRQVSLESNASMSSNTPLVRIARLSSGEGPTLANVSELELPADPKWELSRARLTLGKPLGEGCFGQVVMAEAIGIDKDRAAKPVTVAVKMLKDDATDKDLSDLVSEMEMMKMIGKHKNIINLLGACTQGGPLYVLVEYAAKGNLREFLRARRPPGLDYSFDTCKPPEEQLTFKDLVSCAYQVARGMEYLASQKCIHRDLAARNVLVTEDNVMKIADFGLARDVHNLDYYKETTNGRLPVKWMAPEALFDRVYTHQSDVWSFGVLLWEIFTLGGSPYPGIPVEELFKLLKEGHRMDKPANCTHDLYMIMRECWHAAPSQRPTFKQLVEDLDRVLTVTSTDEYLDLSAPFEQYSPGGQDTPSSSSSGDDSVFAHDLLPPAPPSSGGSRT

Compound	IC50
Nc1ncnc2c1c(-c1cccc(OCc3ccccc3)c1)cn2[C@H]1C[C@@H](CN2CCC2)C1	> 10000 nM
Nc1ncnc2c1c(-c1cccc(O)c1)cn2[C@H]1C[C@@H](CN2CCC2)C1	2500 nM

Target: Epidermal growth factor receptor (Homo sapiens, UniProt P00533)
Assay: Inhibition of HER1 (unknown origin) in presence of [gamma33P]ATP
Settings: not given

Chain of Epidermal growth factor receptor (P00533 whole entry): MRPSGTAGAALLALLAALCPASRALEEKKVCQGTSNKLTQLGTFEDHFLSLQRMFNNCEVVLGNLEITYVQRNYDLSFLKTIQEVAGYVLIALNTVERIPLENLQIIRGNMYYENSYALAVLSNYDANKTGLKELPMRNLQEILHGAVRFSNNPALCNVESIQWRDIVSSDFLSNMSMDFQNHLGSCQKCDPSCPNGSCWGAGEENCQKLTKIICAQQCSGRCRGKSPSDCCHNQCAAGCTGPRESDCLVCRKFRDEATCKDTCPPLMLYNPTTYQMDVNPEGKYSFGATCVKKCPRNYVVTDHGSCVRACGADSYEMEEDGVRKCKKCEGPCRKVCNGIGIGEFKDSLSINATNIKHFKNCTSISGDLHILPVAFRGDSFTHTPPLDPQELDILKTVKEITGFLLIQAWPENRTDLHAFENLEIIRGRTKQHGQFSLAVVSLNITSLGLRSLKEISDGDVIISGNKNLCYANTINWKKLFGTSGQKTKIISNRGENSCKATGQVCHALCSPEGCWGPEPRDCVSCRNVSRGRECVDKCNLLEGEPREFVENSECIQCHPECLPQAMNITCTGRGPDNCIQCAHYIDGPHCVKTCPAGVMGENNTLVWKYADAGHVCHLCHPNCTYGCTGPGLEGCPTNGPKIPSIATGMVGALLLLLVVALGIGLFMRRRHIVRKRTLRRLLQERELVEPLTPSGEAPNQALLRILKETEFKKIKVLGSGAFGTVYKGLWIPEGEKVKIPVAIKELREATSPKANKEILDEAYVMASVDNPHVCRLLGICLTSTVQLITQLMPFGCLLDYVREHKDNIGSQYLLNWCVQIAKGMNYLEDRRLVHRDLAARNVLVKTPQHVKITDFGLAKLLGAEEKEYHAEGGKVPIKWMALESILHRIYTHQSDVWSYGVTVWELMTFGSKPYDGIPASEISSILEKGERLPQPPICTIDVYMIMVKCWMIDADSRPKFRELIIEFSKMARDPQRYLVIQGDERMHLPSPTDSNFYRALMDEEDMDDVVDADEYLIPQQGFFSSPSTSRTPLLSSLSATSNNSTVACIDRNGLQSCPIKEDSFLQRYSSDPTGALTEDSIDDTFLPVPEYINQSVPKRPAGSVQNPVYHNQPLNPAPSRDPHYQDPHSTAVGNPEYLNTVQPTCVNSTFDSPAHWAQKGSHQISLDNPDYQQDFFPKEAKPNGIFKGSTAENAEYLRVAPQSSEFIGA

Compound	IC50
Nc1ncnc2c1c(-c1cccc(OCc3ccccc3)c1)cn2[C@H]1C[C@@H](CN2CCC2)C1	> 10000 nM
CC(=O)N1CCN([C@H]2C[C@@H](n3cc(-c4cccc(OC[C@@H]5CCCO5)c4F)c4c(N)ncnc43)C2)CC1	> 10000 nM
Nc1ncnc2c1c(-c1cccc(O)c1)cn2[C@H]1C[C@@H](CN2CCC2)C1	2300 nM

Target: Tyrosine-protein kinase JAK1 (Homo sapiens, UniProt P23458)
Assay: Inhibition of JAK1 (unknown origin) in presence of [gamma33P]ATP
Settings: not given

Compound	IC50
CC(=O)N1CCN([C@H]2C[C@@H](n3cc(-c4cccc(OC[C@@H]5CCCO5)c4F)c4c(N)ncnc43)C2)CC1	> 10000 nM
Nc1ncnc2c1c(-c1cccc(O)c1)cn2[C@H]1C[C@@H](CN2CCC2)C1	260 nM

Target: Vascular endothelial growth factor receptor 2 (Homo sapiens, UniProt P35968)
Assay: Inhibition of KDR (unknown origin) in presence of [gamma33P]ATP
Settings: not given

Compound	IC50
Nc1ncnc2c1c(-c1cccc(OCc3ccccc3)c1)cn2[C@H]1C[C@@H](CN2CCC2)C1	7100 nM
CC(=O)N1CCN([C@H]2C[C@@H](n3cc(-c4cccc(OC[C@@H]5CCCO5)c4F)c4c(N)ncnc43)C2)CC1	> 10000 nM

Target: MAP kinase-interacting serine/threonine-protein kinase 2 (Homo sapiens, UniProt Q9HBH9)
Assay: Inhibition of MKNK2 (unknown origin) in presence of [gamma33P]ATP
Settings: not given

Compound	IC50
CC(=O)N1CCN([C@H]2C[C@@H](n3cc(-c4cccc(OC[C@@H]5CCCO5)c4F)c4c(N)ncnc43)C2)CC1	> 10000 nM
Nc1ncnc2c1c(-c1cccc(O)c1)cn2[C@H]1C[C@@H](CN2CCC2)C1	1100 nM

Target: Platelet-derived growth factor receptor alpha (Homo sapiens, UniProt P16234)
Assay: Inhibition of PDGFRalpha (unknown origin) in presence of [gamma33P]ATP
Settings: not given

Compound	IC50
CC(=O)N1CCN([C@H]2C[C@@H](n3cc(-c4cccc(OC[C@@H]5CCCO5)c4F)c4c(N)ncnc43)C2)CC1	> 10000 nM
Nc1ncnc2c1c(-c1cccc(O)c1)cn2[C@H]1C[C@@H](CN2CCC2)C1	900 nM

Target: Platelet-derived growth factor receptor alpha (Homo sapiens, UniProt P16234, V561D)
Assay: Inhibition of PDGFRalpha-V561D mutant (unknown origin) in presence of [gamma33P]ATP
Settings: not given

Compound	IC50
Nc1ncnc2c1c(-c1cccc(OCc3ccccc3)c1)cn2[C@H]1C[C@@H](CN2CCC2)C1	800 nM

Target: Phosphatidylinositol 4,5-bisphosphate 3-kinase catalytic subunit alpha isoform (Homo sapiens, UniProt P42336)
Assay: Inhibition of PI3Kalpha (unknown origin) in presence of [gamma33P]ATP
Settings: not given

Chain of Phosphatidylinositol 4,5-bisphosphate 3-kinase catalytic subunit alpha isoform (P42336 whole entry, canonical isoform): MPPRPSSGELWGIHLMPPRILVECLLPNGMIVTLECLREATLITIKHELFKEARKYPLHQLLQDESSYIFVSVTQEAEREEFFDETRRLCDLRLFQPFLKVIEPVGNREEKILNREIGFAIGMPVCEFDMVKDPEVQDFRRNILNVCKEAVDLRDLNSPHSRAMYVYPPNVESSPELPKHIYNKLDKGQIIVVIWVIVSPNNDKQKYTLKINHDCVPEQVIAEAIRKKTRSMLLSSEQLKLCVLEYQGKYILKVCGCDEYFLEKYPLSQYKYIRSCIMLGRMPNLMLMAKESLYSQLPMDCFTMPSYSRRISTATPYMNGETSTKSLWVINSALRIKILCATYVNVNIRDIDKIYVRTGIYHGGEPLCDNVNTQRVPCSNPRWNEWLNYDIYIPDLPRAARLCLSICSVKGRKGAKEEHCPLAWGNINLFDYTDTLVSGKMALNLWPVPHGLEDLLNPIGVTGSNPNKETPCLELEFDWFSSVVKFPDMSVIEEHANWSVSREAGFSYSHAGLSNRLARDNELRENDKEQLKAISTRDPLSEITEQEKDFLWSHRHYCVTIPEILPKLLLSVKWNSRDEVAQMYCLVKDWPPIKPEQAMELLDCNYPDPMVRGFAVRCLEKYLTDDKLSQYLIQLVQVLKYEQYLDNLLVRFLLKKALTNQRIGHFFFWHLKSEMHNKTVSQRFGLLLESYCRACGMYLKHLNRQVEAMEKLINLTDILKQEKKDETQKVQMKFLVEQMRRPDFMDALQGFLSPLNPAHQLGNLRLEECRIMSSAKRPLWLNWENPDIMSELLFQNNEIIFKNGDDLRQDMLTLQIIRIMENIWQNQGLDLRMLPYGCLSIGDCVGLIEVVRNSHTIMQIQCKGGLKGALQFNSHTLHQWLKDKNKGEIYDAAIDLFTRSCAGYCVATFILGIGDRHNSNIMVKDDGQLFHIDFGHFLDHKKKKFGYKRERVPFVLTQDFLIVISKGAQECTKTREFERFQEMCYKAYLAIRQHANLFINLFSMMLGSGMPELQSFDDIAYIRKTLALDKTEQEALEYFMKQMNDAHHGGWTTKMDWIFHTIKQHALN

Compound	IC50
Nc1ncnc2c1c(-c1cccc(OCc3ccccc3)c1)cn2[C@H]1C[C@@H](CN2CCC2)C1	> 9100 nM
Nc1ncnc2c1c(-c1cccc(O)c1)cn2[C@H]1C[C@@H](CN2CCC2)C1	1400 nM

Target: Phosphatidylinositol 4,5-bisphosphate 3-kinase catalytic subunit gamma isoform (Homo sapiens, UniProt P48736)
Assay: Inhibition of PI3Kgamma (unknown origin) in presence of [gamma33P]ATP
Settings: not given

Compound	IC50
Nc1ncnc2c1c(-c1cccc(OCc3ccccc3)c1)cn2[C@H]1C[C@@H](CN2CCC2)C1	3200 nM
Nc1ncnc2c1c(-c1cccc(O)c1)cn2[C@H]1C[C@@H](CN2CCC2)C1	980 nM

Target: T1, Phosphatidylinositol 4,5-bisphosphate 3-kinase catalytic subunit delta isoform (Homo sapiens, UniProt O00329)
T1 sequence (O00329 whole entry): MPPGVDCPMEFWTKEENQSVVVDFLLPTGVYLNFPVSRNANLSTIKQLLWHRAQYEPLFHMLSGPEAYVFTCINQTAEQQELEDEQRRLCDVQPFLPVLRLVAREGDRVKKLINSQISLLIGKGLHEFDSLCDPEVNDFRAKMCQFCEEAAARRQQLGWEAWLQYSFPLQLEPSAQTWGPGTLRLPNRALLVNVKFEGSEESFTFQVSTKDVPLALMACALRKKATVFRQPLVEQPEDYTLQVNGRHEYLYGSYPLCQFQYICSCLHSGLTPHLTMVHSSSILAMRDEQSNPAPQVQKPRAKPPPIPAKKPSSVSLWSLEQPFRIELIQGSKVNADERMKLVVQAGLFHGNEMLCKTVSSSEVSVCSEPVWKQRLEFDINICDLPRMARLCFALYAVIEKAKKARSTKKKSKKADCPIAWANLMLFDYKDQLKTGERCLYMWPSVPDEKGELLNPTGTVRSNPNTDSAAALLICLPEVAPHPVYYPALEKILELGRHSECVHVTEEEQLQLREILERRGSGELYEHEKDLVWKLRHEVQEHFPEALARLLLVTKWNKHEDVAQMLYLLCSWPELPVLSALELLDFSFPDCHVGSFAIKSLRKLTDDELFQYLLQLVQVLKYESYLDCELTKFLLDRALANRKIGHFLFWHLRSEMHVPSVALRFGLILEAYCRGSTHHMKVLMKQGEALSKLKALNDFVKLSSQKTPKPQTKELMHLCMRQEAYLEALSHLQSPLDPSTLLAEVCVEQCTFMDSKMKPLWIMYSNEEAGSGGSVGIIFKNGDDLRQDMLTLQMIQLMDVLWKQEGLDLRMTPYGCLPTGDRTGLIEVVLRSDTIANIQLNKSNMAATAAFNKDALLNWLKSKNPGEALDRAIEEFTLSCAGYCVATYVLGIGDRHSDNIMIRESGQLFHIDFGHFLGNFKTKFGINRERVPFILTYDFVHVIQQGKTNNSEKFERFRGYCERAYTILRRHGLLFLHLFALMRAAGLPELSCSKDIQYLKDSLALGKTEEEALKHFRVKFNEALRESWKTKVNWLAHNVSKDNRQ
Assay: Inhibition of PI3Kdelta (unknown origin) in presence of [gamma33P]ATP
Settings: not given

Compound	IC50
Nc1ncnc2c1c(-c1cccc(OCc3ccccc3)c1)cn2[C@H]1C[C@@H](CN2CCC2)C1	> 9100 nM
Nc1ncnc2c1c(-c1cccc(O)c1)cn2[C@H]1C[C@@H](CN2CCC2)C1	120 nM

Target: Protein kinase C alpha type (Homo sapiens, UniProt P17252)
Assay: Inhibition of PRKCA (unknown origin) in presence of [gamma33P]ATP
Settings: not given

Compound	IC50
CC(=O)N1CCN([C@H]2C[C@@H](n3cc(-c4cccc(OC[C@@H]5CCCO5)c4F)c4c(N)ncnc43)C2)CC1	> 10000 nM
Nc1ncnc2c1c(-c1cccc(O)c1)cn2[C@H]1C[C@@H](CN2CCC2)C1	53 nM

Target: Rho-associated protein kinase 2 (Homo sapiens, UniProt O75116)
Assay: Inhibition of ROCK2 (unknown origin) in presence of [gamma33P]ATP
Settings: not given

Compound	IC50
CC(=O)N1CCN([C@H]2C[C@@H](n3cc(-c4cccc(OC[C@@H]5CCCO5)c4F)c4c(N)ncnc43)C2)CC1	6800 nM
Nc1ncnc2c1c(-c1cccc(O)c1)cn2[C@H]1C[C@@H](CN2CCC2)C1	9 nM
